The target in assay [1] is T1, PI3K alpha (Homo sapiens, UniProt P42336).
T1 construct: p85(iSH2) fusion partner (see partner chain) (N); His tag (C); made in house; host or cells: baculovirus; Tn5 (Trichoplusia ni) or TiniPro insect cells
Briefly: PI3K alpha kinase assay (Kinase-Glo luminescence). The format is biochemical. A digest of the protocol:
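Compounds are titrated at 8 concentrations and mixed with PI3Kα protein (EMV B1075, 10 nM) in phosphatidylinositol (10 μg/mL). ATP at 1 μM starts the 60-minute room-temperature reaction, which is stopped with Kinase-Glo before luminescence reading. Four-parameter curve fitting gives IC50.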

The target in assay [2] is T2, mTOR (Homo sapiens, UniProt P42345).
T2 construct: purchased Invitrogen Corporation (Carlsbad/CA, USA) PV4753
T2 sequence (P42345 1360-2549 limits assumed): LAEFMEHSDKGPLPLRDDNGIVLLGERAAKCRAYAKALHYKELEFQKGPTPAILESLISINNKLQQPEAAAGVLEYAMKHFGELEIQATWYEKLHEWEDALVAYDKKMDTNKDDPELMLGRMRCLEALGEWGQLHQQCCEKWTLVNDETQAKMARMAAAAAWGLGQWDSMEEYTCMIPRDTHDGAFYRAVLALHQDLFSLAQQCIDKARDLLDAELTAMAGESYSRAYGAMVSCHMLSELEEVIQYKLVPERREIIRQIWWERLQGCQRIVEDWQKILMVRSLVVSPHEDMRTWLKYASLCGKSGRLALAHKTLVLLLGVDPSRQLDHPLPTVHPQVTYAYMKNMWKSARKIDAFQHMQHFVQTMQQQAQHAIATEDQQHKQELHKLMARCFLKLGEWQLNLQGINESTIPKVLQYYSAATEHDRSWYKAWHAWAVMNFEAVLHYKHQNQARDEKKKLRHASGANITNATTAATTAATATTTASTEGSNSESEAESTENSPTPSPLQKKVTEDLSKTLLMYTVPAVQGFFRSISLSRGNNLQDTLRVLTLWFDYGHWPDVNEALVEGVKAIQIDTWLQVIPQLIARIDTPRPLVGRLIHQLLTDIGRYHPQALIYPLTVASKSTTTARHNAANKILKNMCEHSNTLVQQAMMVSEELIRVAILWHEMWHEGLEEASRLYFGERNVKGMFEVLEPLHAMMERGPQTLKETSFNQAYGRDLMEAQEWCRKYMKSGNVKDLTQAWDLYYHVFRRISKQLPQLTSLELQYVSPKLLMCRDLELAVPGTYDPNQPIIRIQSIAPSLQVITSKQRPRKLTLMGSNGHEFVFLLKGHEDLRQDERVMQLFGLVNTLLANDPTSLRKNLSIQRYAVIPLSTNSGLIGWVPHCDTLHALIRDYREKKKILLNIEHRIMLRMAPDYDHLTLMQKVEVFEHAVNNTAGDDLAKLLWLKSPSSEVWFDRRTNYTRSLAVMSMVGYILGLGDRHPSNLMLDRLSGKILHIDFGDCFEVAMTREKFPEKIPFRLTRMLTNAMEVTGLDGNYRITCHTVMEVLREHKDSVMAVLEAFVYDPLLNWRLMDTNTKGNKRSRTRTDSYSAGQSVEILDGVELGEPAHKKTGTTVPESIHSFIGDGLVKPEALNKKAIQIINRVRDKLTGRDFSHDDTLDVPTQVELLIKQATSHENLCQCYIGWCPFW
Briefly: Biochemical assay for m-TOR by TR-FRET. The settings on record: 8 μM ATP, 400 nM GFP-4EBP1, 0.5 nM mTOR. An outline of the steps: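 Enzyme 0.5 nM, GFP-4EBP1 400 nM, ATP 8 μM (all final); 50 mM HEPES pH 7.5, 10 mM MnCl2, 1 mM DTT; rt. Detection: Tb-α-p4EBP1 [pT46] 0.5 nM in EDTA, TR-FRET, 15 min. Reference compound on every plate, 16-point duplicate dilutions.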

In assay [3] the test system is S6 Ribosomal Protein phosphorylation Ser235/236 in TSC1 null mouse embryo fibroblast (MEF) cells. Briefly: Reverse protein array assay, S6 Ribosomal Protein phosphorylation Ser235/236 in TSC1 null MEF cells. The format is cell-based. The following applies: 1 h, pS6 ribosomal protein Ser235/236, 60 minutes incubation, read-out: p-S6 IC50. An outline of the steps:
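TSC1−/− MEFs, seeded and held ≥20 h at 37 °C/5% CO2, were exposed to 8-step serial compound dilutions (0.02% DMSO final; DMSO vehicle control) for 60 min at 37 °C. Cells were then lysed on ice for 10 min and lysates spotted onto reverse protein array chips.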

Assay [4] has as its target T3, PI3K delta (Homo sapiens, UniProt O00329).
T3 construct: for the full-length p110-d subunit are generated and fused by overlapping PCR; p85(iSH2) fusion partner (see partner chain) (N); His tag (C); made in house; host or cells: baculovirus; Tn5 (Trichoplusia ni) or TiniPro insect cells
Briefly: PI3K delta kinase assay (Kinase-Glo luminescence). The format is biochemical. A digest of the protocol: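 ATP 1 μM, PI 10 μg/mL, PI3Kδ construct BV1060 10 nM (final); 10 mM Tris pH 7.5, 3 mM MgCl2, 50 mM NaCl, 0.05% CHAPS, 1 mM DTT; 60 min RT; Kinase-Glo stop, luminescence.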

T3 sequence (O00329 with tags, fused parts or gaps limits assumed): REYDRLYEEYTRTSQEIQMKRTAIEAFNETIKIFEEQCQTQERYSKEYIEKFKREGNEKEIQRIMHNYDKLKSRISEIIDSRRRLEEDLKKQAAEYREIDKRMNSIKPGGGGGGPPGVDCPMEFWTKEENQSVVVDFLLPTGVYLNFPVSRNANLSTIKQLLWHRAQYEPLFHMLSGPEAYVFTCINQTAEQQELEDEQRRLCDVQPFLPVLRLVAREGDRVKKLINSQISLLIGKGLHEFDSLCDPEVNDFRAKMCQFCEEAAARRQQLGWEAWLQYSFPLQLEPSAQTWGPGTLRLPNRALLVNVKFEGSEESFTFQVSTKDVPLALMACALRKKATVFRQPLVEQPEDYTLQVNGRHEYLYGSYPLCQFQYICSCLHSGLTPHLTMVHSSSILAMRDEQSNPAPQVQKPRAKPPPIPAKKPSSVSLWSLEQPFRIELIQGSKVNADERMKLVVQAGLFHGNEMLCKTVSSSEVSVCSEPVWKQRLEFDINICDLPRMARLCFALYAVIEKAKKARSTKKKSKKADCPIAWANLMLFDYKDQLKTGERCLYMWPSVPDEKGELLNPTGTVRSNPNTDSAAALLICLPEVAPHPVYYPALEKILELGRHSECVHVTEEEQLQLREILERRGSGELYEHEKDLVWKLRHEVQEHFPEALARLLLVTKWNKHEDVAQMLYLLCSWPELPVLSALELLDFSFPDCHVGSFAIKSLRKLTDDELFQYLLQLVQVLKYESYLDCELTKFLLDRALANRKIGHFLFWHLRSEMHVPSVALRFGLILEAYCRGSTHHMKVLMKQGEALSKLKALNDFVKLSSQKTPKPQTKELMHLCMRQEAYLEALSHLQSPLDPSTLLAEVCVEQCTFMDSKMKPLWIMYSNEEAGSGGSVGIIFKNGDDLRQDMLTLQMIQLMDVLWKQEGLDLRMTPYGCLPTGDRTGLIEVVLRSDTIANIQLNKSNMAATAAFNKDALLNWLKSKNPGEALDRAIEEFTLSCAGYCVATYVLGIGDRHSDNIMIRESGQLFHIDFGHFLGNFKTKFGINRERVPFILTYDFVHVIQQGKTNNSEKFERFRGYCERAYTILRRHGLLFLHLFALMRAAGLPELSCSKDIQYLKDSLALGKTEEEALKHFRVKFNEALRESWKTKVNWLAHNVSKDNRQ
T1 sequence (P42336 with tags, fused parts or gaps limits assumed): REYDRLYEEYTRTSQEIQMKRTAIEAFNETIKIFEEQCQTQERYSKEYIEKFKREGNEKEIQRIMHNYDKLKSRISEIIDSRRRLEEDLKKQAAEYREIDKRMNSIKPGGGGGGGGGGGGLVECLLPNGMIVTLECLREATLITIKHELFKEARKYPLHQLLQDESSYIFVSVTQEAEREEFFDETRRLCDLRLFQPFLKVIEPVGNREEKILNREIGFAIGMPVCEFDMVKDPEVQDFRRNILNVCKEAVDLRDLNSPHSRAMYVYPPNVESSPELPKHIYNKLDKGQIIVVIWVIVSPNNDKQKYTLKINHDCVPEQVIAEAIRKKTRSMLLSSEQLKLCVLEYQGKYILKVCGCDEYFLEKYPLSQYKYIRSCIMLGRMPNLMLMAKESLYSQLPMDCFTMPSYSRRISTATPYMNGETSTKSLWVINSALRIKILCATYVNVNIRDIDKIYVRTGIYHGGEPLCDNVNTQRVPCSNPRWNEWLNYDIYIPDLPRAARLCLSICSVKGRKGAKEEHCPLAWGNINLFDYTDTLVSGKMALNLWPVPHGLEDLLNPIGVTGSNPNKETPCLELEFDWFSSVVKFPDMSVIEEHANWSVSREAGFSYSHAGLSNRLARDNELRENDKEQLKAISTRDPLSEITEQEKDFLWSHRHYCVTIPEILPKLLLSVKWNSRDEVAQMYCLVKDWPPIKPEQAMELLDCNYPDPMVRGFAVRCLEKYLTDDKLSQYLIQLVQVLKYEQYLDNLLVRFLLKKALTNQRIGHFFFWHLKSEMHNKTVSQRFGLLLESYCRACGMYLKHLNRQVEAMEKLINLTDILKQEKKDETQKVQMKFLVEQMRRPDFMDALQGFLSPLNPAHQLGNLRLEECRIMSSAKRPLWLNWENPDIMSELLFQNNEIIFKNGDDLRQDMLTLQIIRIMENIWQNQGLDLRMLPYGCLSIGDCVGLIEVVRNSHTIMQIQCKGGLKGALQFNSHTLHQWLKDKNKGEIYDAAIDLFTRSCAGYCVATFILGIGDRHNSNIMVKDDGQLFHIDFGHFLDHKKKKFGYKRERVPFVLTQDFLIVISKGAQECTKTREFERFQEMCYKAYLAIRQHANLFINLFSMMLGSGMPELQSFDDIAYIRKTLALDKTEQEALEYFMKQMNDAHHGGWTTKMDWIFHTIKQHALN

Take `CNc1ncc(-c2ccc3ncc4c(c3c2)n(-c2c(C)nn(C)c2C)c(=O)n4C)cc1F` [Example 141.1, 8-(5-Fluoro-6-methylamino-pyridin-3-yl)-3-methyl-1-(1,3,5-trimethyl-1H-pyrazol-4-yl)-1,3-dihydro-imidazo[4,5-c]quinolin-2-one]: the IC50 stood at 817 nM in assay [1], 447 nM in assay [2], 34 nM in assay [3] and 44 nM in assay [4].
The corresponding values for `CNc1ncc(-c2ccc3ncc4c(c3c2)n(-c2cn(C)nc2C)c(=O)n4C)cc1F` [Example 141.2, 1-(1,3-Dimethyl-1H-pyrazol-4-yl)-8-(5-fluoro-6-methylamino-pyridin-3-yl)-3-methyl-1,3-dihydro-imidazo[4,5-c]quinolin-2-one] are 14 nM, 7 nM, 1 nM and 98 nM.
Consider `Cc1nn(C)c(C)c1-n1c(=O)n(C)c2cnc3ccc(-c4cnc(N)c(F)c4)cc3c21` [Example 142.1, 8-(6-Amino-5-fluoro-pyridin-3-yl)-3-methyl-1-(1,3,5-trimethyl-1H-pyrazol-4-yl)-1,3-dihydro-imidazo[4,5-c]quinolin-2-one], for which the IC50 in assay [1] stood at 28 nM; in assay [2], 481 nM; in assay [3] it was 36 nM; in assay [4] it was 4 nM.
The corresponding values for `CNc1ncc(-c2ccc3ncc4c(c3c2)n(-c2c(C)nn(C)c2C)c(=O)n4C)cc1Cl` [Example 146.4, 8-(5-Chloro-6-methylamino-pyridin-3-yl)-3-methyl-1-(1,3,5-trimethyl-1H-pyrazol-4-yl)-1,3-dihydro-imidazo[4,5-c]quinolin-2-one] are 35 nM, 309 nM, 12 nM and 19 nM.
For `CNc1ncc(-c2ccc3ncc4c(c3c2)n(-c2cc(C)nn2C)c(=O)n4C)cc1Cl` [Example 146.5, 8-(5-Chloro-6-methylamino-pyridin-3-yl)-1-(2,5-dimethyl-2H-pyrazol-3-yl)-3-methyl-1,3-dihydro-imidazo[4,5-c]quinolin-2-one] the same measures were 9 nM, 48 nM, 2.66 nM and 3 nM.
The corresponding values for `Cc1noc(C)c1-n1c(=O)n(C)c2cnc3ccc(-c4cnc(N)c(Cl)c4)cc3c21` [Example 148.4, 8-(6-Amino-5-chloro-pyridin-3-yl)-1-(3,5-dimethyl-isoxazol-4-yl)-3-methyl-1,3-dihydro-imidazo[4,5-c]quinolin-2-one] are 100 nM, 678 nM, 17.7 nM and 45 nM.
`CNc1cc(-c2ccc3ncc4c(c3c2)n(-c2cn(C)nc2C)c(=O)n4C)cnc1F` [Example 150.2, 1-(1,3-Dimethyl-1H-pyrazol-4-yl)-8-(6-fluoro-5-methylamino-pyridin-3-yl)-3-methyl-1,3-dihydro-imidazo[4,5-c]quinolin-2-one]: the IC50 in assay [1] is 9 nM; in assay [2] it was 8 nM; in assay [3] it was 1 nM; in assay [4] it was 7 nM.
The corresponding values for `CCNc1cc(-c2ccc3ncc4c(c3c2)n(-c2c(C)nn(C)c2C)c(=O)n4C)cnc1F` [Example 154.1, 8-(5-Ethylamino-6-fluoro-pyridin-3-yl)-3-methyl-1-(1,3,5-trimethyl-1H-pyrazol-4-yl)-1,3-dihydro-imidazo[4,5-c]quinolin-2-one] are 157 nM, 619 nM, 3 nM and 37 nM.
The corresponding values for `Cc1ncc(-c2ccc3ncc4c(c3c2)n(-c2cn(C)nc2C)c(=O)n4C)cc1N(C)C` [Example 164, 8-(5-Dimethylamino-6-methyl-pyridin-3-yl)-1-(1,3-dimethyl-1H-pyrazol-4-yl)-3-methyl-1,3-dihydro-imidazo[4,5-c]quinolin-2-one] are 5 nM, less than 3 nM, 1 nM and 4 nM.

The record behind these values is patent US20140005163A1 (NOVARTIS AG, priority 2010, published 2014).
